Assay [1] addresses T1, Carboxy-terminal domain RNA polymerase II polypeptide A small phosphatase 1 (Homo sapiens, UniProt Q9GZU7).
T1 sequence (Q9GZU7 whole entry): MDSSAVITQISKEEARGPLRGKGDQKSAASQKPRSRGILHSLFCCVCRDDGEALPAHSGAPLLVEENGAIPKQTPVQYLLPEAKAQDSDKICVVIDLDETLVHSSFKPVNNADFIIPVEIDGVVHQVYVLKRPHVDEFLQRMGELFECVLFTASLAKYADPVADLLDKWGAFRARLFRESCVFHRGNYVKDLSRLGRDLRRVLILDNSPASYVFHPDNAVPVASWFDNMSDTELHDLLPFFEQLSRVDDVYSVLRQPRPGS
Kind of assay: inhibitors of CTDSP1, concentration-response testing, biochemical assay, absorbance-based, actives from ultra-high-throughput screening (AID 540297). Format: functional.

Assay [2] addresses T2, Low molecular weight phosphotyrosine protein phosphatase (Homo sapiens, UniProt P24666).
T2 sequence (P24666 whole entry): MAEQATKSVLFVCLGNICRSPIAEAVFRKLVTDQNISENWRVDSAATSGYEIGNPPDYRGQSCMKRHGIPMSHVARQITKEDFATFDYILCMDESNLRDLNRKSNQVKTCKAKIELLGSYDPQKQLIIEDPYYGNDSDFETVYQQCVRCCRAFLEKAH
Format: functional. Particulars: read-out: IC50_Mean.

Assay [3] concerns the target T2, Low molecular weight phosphotyrosine protein phosphatase. The assay is classed as functional. Particulars: read-out: IC50_Mean. This is another data set of the same source.
Another assay concerns the target Beta Lactamase (Pseudomonas aeruginosa, UniProt Q932Y6).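 Further: confirmatory high-throughput screen measuring VIM-2 metallo-beta-lactamase inhibition by epi-absorbance in dose response.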
For assay [4], the target named is Beta-lactamase (Pseudomonas aeruginosa, UniProt Q79MP6).
Beta-lactamase (Pseudomonas aeruginosa, UniProt Q79MP6), sequence (Q79MP6 whole entry): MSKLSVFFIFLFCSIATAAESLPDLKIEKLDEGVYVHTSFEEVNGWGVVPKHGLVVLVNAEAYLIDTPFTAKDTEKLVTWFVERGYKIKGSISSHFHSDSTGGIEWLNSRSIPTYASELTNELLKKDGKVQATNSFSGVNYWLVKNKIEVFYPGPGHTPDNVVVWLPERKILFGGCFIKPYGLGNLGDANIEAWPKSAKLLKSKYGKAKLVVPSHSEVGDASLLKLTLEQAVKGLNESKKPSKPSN
In assay [5] the target is Beta-lactamase (Salmonella choleraesuis (strain SC-B67), UniProt Q5J463).
Beta-lactamase (Salmonella choleraesuis (strain SC-B67), UniProt Q5J463), sequence (Q5J463 whole entry): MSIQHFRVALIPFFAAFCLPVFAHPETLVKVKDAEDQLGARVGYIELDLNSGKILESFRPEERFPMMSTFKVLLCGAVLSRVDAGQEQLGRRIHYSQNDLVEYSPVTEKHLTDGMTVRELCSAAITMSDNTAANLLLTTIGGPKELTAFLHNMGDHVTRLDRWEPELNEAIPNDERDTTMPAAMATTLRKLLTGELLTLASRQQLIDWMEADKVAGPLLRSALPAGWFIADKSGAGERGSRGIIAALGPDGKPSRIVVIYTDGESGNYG
Assay [6] concerns the target T3, Endoribonuclease toxin MazF (Escherichia coli K-12, UniProt P0AE70).
T3 sequence (P0AE70 whole entry): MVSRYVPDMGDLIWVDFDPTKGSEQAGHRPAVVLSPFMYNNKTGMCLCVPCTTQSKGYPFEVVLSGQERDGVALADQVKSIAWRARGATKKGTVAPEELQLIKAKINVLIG
As to the kind of experiment: MazF toxin RNase activators, dose response, biochemical, fluorescence, single-stranded RNA substrate, uHTS hits (AID 588481). Format: functional.

Assay [7] concerns the target T3, Endoribonuclease toxin MazF. As to the kind of experiment: fluorescent RNA oligo signal without MazF, dose response, counter-screen for MazEF activator project, biochemical, fluorescence, single-stranded RNase substrate (AID 588502). The assay is classed as functional. Background: The purpose of a counterscreen is to sort out artefacts and off-target activity.
For assay [8], the target named is T4, Botulinum neurotoxin type A (Clostridium botulinum (strain Hall / ATCC 3502 / NCTC 13319 / Type A), UniProt P0DPI1). As to the kind of experiment: High-throughput multiplex microsphere dose response for inhibitors of toxin protease, specifically Botulinum neurotoxin light chain A protease, compounds from Cherry Pick 01. Particulars: read-out: EC50_MICROM. The assay is classed as functional.
T4 sequence (P0DPI1 2-448 limits assumed): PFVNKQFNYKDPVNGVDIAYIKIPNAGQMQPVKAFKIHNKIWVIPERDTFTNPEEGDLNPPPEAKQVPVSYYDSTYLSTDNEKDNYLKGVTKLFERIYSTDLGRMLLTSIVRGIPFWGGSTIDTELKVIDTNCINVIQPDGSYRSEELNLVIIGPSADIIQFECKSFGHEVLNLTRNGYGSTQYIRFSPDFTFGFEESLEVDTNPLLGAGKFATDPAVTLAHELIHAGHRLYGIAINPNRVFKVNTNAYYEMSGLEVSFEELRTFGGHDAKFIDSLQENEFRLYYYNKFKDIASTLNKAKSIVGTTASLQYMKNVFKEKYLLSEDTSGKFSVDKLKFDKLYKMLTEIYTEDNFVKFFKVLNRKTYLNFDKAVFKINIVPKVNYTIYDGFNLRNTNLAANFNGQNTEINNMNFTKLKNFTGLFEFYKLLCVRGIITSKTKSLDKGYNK

Assay [9] has as its target T4, Botulinum neurotoxin type A. Kind of assay: High-throughput multiplex microsphere dose response for inhibitors of toxin protease, specifically Botulinum neurotoxin light chain A protease, compounds from Powder Set 01. The assay is classed as functional, Clostridium botulinum A str. ATCC 3502. Particulars: read-out: EC50_MICROM.
Assay [10] deals with Botulinum neurotoxin type F (Clostridium botulinum, UniProt P30996). Kind of assay: High-throughput multiplex microsphere dose response for inhibitors of toxin protease, specifically Botulinum neurotoxin light chain F protease, compounds from Powder Set 01. Format: functional, Clostridium botulinum Bf. Particulars: read-out: EC50_MICROM.
Botulinum neurotoxin type F, sequence (P30996 1-436 limits assumed): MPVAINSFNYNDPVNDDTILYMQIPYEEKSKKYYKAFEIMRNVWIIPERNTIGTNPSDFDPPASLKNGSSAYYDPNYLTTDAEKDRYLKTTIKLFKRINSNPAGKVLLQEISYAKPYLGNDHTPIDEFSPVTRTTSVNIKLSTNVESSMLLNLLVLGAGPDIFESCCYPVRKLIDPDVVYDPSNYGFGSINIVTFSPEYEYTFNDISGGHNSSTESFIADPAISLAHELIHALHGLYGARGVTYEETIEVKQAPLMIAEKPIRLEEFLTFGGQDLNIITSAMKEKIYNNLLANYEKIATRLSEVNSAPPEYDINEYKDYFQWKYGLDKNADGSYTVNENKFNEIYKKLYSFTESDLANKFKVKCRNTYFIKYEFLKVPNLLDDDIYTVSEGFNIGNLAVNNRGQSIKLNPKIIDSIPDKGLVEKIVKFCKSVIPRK
In the next assay the target is Lethal factor (Bacillus anthracis, UniProt P15917). Kind of assay: High-throughput multiplex microsphere dose response for inhibitors of toxin protease, specifically Lethal Factor protease, compounds from Powder Set 01. Particulars: read-out: EC50_MICROM. The assay is classed as functional, Bacillus anthracis str. A2012.
Lethal factor, sequence (P15917 whole entry): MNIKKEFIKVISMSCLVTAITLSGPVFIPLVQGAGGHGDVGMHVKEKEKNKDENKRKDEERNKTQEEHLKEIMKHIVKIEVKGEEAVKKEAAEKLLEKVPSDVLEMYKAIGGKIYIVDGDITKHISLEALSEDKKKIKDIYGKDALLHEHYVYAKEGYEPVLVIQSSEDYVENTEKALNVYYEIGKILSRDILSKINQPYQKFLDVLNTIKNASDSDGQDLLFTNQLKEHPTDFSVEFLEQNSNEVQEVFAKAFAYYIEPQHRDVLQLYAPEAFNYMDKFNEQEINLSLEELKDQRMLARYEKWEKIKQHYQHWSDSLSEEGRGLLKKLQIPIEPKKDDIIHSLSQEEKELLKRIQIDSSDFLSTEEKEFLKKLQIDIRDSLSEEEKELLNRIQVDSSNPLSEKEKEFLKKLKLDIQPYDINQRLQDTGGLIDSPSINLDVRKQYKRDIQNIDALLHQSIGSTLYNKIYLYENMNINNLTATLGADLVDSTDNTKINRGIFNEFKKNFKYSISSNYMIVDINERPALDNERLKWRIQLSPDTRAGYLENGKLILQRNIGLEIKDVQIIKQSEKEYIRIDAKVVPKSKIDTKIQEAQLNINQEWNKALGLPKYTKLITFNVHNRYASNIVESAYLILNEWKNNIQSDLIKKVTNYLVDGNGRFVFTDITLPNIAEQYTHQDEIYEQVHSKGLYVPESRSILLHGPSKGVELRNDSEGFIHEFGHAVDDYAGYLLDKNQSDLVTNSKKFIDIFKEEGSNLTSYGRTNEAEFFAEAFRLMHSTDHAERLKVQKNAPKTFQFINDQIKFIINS
Assay [11] concerns the target T4, Botulinum neurotoxin type A. Kind of assay: Confirmatory FRET assay using full length substrates for Botulinum neurotoxin light chain A protease, with Powder Set01. The assay is classed as functional.
The nature of assay [12]: Luminescence Cell-Based Dose Retest to Confirm Inhibitors of Cancer Stem Cells. [Related pubchem assays (depositor defined):AID2717, AID2721]. The assay is classed as functional. Particulars: Homo sapiens.
Assay [13] concerns the target T5, Microphthalmia-associated transcription factor (Homo sapiens, UniProt O75030).
T5 sequence (O75030 whole entry): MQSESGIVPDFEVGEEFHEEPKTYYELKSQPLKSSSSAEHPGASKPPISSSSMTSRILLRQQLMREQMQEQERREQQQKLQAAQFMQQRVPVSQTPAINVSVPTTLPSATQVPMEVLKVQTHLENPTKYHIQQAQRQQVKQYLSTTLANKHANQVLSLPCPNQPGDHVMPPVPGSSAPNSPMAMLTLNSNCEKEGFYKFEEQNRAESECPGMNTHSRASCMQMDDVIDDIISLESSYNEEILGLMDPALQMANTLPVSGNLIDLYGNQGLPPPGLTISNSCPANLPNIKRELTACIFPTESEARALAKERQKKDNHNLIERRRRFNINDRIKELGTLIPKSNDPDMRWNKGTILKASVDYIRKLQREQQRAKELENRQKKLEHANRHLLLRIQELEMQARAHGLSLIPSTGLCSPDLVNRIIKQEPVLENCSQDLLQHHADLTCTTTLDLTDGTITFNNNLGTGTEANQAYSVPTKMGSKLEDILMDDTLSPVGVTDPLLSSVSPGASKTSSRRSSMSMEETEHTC
As to the kind of experiment: TRPM1 promoter luciferase signal decrease, dose response, MITF inhibitor project, cell-based, SK-MEL-5, cherry-picked, set 3 (AID 493073).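 Further: SK-MEL-5 melanoma cells with luciferase driven by the MITF target TRPM1 promoter.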 Format: functional.

The next assay relates to INS1. As to the kind of experiment: beta cell apoptosis inhibitors, cytokine rescue, dose response, luminescence, retest (AID 449756).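 Further: cell death triggered by IL-1 beta plus TNF-alpha plus IFN-gamma mixture; protective hits raise ATP signal compared with cytokine alone wells.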 The assay is classed as functional, cell-based. The following applies: Rattus norvegicus.
The subject of a further assay is A-375. Kind of assay: A375 melanoma cell viability reduction, dose response, counter-screen for MITF modulator project, cherry-pick samples, set 2 (AID 540335). The assay is classed as functional, cell-based. The following applies: Homo sapiens.
Another assay concerns the target Melanocortin receptor 4 (Homo sapiens, UniProt P32245). As to the kind of experiment: MC4R antagonist potency on cAMP, dose response, cell-based, TR-FRET, biased antagonists (AID 602298).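 Further: antagonist potency against agonist-stimulated cAMP production.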 The assay is classed as functional. For orientation: In TR-FRET formats the signal depends on donor and acceptor labels being close together.
The nature of assay [14]: Shn3 3'UTR reporter inhibitors, dose response, cell-based, Clone20 osteoblasts, firefly luciferase, cherry-picked (AID 624132).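 Further: firefly luciferase luminescence from reporter carrying the Shn3 3'UTR in osteoblasts.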 Format: functional.
Assay [15] is described as follows: HepG2 cell cytotoxicity, dose response, cytotoxicity control for Shn3 inhibitor project, CellTiter-Glo, cherry-picked (AID 624134). Format: functional, cell-based. On the technique in general: ATP-based viability assays read luminescence as a measure of living cells.
Assay [16] is described as follows: control 3'UTR Renilla luciferase suppression, dose response, counter-screen for Shn3 inhibitor project, cell-based, Clone20-Shn3RL, cherry-picked (AID 624133). The assay is classed as functional.
Assay [17] can be described thus: nonselective inhibitors of cellular cAMP signaling, dose response, counter-screen for MC4R biased antagonist project, cell-based, TR-FRET cAMP detection (AID 602305).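 Further: U2OS cells stimulated with forskolin near its EC80 as the cAMP inducer; potency is for inhibition of forskolin-stimulated cAMP signaling.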 The assay is classed as functional.
The test system of the next assay is HeLa. Kind of assay: HeLa cell cytotoxicity, dose response, cytotoxicity control for MITF activator project, CellTiter-Glo luminescence, cherry-pick samples (AID 540259). The assay is classed as functional, cell-based. The following applies: Homo sapiens.

The values that follow come from ChEMBL document CHEMBL1201862, “PubChem BioAssay data set” (2004).

The source made the active and inactive calls. Unless noted, the calls are words filed in the database; no cut-off is given here. Where only a bound is given, the exact number is not on record here.

Melanocortin receptor 4, sequence (P32245 whole entry): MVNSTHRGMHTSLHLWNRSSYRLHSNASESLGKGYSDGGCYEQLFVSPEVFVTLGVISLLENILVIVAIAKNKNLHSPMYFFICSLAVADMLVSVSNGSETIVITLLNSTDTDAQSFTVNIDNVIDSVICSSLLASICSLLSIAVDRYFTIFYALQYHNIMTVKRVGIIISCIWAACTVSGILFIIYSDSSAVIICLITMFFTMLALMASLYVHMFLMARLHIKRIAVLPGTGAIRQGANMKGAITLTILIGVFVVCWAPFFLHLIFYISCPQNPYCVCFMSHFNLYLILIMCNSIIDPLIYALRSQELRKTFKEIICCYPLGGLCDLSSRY
Beta Lactamase, sequence (Q932Y6 whole entry): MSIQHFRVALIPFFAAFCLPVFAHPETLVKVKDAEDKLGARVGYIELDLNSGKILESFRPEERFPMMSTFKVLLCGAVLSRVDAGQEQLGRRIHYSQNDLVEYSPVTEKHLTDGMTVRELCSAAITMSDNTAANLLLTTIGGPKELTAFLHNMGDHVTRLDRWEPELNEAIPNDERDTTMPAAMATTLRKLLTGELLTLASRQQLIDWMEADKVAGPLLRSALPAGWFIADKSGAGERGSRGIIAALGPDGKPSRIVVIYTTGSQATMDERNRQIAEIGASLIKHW

With `O=C(N/N=C\c1ccc(OC(=O)c2cccs2)cc1)c1ccc(Cl)cc1`, the IC50 in assay [1] is 2.16 µM (active); in assay [2], 4.51 µM (active); in [3], 11.4 µM (active).
As to `Oc1ccc2ccccc2c1-c1sc(Nc2ccccc2)n[n+]1-c1ccc(F)cc1`, the IC50 on Beta Lactamase was 32 µM (inactive); at Beta-lactamase [4] it was 46.8 µM (inactive); at Beta-lactamase [5], 23.7 µM (inactive). Moreover, the EC50 in assay [6] and in assay [7] was > 99 µM (inactive) each time.
`O=C(Nc1ccc2nc(-c3cccs3)c(-c3cccs3)nc2c1)N1CCOCC1`: the EC50 is 15.5 µM (active) in assay [8]; 5.8 µM (active) in [9]; 9.6 µM (active) in assay [10]; 7.6 µM (active) on Lethal factor; 0.4 µM (active) in [11].
Broadly, the AC50 is the midpoint of the concentration-response curve, whichever way the signal moves. With `Cc1ccc(C)c(NC(=O)/C(C#N)=C/c2cn(CC(=O)NCc3ccco3)c3ccccc23)c1`, the AC50 in [12] is 57.8 µM (active); in assay [13], 6.56 µM (active); with INS1 it was 3.67 µM (active); in the assay with A-375 it was 33.9 µM (active).
Consider `O=C(CSc1c2c(nc3ccc(Cl)cc13)CCCC2)N1CCN(C(=O)c2ccco2)CC1`, for which the IC50 (on Melanocortin receptor 4; in [17]) was > 64.6 µM (inactive) each time. Also, the AC50 was 3.75 µM (active) in assay [14], 65.3 µM (active) in assay [15] and 11.8 µM (active) in [16].
Take `O=C(CNC(=O)c1cccs1)c1ccc(Br)cc1`: in the assay on HeLa, the AC50 was 59.4 µM (active).
